SMILES strings stand for the structures.

Data set [1] has as its system SARS-CoV-2 (WK-521, ancestral strain). Put plainly: SARS-CoV-2 inhibition MTT assay in Vero E6/TMPRSS2 cells. Type of data set: cell-based. Conditions: for EC50: Severe acute respiratory syndrome coronavirus 2, VeroE6/TMPRSS2; for Selectivity index: between EC50 and CC50, WK-521, Vero E6/TMPRSS2 cells. For orientation: Tetrazolium assays rely on reduction of a dye to a coloured formazan, in cell work by metabolically active cells.

The test system of data set [2] is high fat diet-induced obesity mice models. Conditions: oral intake; cited from earlier work.
Data set [3] relates to SARS-CoV-2 mediated cell-to-cell fusion. The class given is cell-based. Conditions: 0.8 to 25 μM; 24 h.
The test system of data set [4] is sphingomyelin on the plasma membrane in Vero E6 cells. The class given is cell-based. Conditions: 5 μM, 30 min, versus control (DMSO).
Another data set can be described thus: in vitro. Conditions: African green monkey.

Regarding `CCCCCC/C=C\CCCCCCCc1cccc(O)c1C(=O)O` [Ginkgolic acid], the EC50 (as a rule, the midpoint of the concentration-response curve) in data set [1] worked out at 7.9 µM.
`O=C(CCCCCCCCc1ccc(O)c(O)c1)c1c(O)cccc1O` [Compound 1, Malabaricone C]: the “efficacies in high fat diet-induced obesity mice” value in data set [2] was “reducing weight gain, improving glucose tolerance, and reducing hepatic steatosis”. Also, the “inhibition of cell fusion (yellow hypertrophic cells)” value in data set [3] is on record as “increased in a dose-dependent manner”. Also, in data set [4], the “fluorescence intensity of EGFP-NT-Lys on the plasma membrane (clustered SM)” value is “lower than that of the control” and the “fluorescence intensity of EqtII-EGFP (dispersed SM)” value is on record as “almost no difference”. In data set [1], this compound registered an EC50 of 1.5 µM and a Selectivity index of 9.7. In the data set “in vitro”, the CC50 came to 14 µM.
In data set [1], `CC(C)C(=O)OC[C@H]1O[C@@H](n2ccc(NO)nc2=O)[C@H](O)[C@@H]1O` [Molnupiravir] returned an EC50 of 0.15 µM and a Selectivity index of 33.8. Also, the CC50 in the data set “in vitro” turned out to be 5.3 µM.
For the compound `CCC(CC)COC(=O)[C@H](C)N[P@](=O)(OC[C@H]1O[C@@](C#N)(c2ccc3c(N)ncnn23)[C@H](O)[C@@H]1O)Oc1ccccc1` [Remdesivir], the response in data set [1] was half-maximal at 0.5 µM (EC50). The compound also displayed a CC50 in “in vitro” of more than 10 µM.

(Values after article PMC11903690 (Scientific Reports, 2025).)
